Reference: ChEMBL document CHEMBL4418495, “Entpd5 inhibitors” (2012)
Activity calls are given as the source filed them. How the calls were made is not given here.

Columns and labels:
[1] = biological target: T1, Nucleoside diphosphate phosphatase ENTPD5 (Homo sapiens) (UniProt O75356); assay: Inhibition of human recombinant ENTPD5 expressed in insect cells assessed as reduction in reduction in UDP hydrolysis by measuring inorganic phosphate release incubated for 1 hr by malachite green based assay
T1 sequence (whole entry): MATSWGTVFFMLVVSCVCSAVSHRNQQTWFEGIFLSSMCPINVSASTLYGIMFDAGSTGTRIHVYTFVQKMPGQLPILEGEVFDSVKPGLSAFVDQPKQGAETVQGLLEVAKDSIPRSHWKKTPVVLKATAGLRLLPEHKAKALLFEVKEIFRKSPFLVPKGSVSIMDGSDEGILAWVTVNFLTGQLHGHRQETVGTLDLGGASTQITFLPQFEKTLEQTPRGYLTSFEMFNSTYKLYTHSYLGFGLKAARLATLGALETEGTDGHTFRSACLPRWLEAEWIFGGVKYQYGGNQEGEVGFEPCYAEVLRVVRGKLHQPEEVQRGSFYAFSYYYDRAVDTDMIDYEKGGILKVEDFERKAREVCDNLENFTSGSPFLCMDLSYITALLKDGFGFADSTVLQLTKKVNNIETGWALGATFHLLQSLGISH

[2] = biological target: T2, Uridylate kinase (Escherichia coli (strain K12)) (UniProt P0A7E9); assay: Inhibition of recombinant Escherichia coli UMP kinase pyrH catalyzed UMP phosphorylation in presence of GTP and ATP incubated for 1 hr by luminescence based assay
T2 sequence (whole entry): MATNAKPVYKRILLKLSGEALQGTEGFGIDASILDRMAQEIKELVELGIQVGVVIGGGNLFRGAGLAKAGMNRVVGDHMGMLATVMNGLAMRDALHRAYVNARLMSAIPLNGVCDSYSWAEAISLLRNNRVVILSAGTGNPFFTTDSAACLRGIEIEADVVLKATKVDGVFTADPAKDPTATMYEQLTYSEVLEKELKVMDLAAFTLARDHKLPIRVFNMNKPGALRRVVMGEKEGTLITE

[3] = biological target: T1, Nucleoside diphosphate phosphatase ENTPD5 (Homo sapiens); assay: Inhibition of human recombinant ENTPD5 expressed in insect cells assessed as reduction in UDP hydrolysis at 1 uM incubated for 1 hr in presence of UMP, GTP and ATP by Escherichia coli UMP kinase pyrH catalyzed UMP phosphorylation coupled luciferase assay
[4] = biological target: T1, Nucleoside diphosphate phosphatase ENTPD5 (Homo sapiens); assay: Inhibition of human recombinant ENTPD5 expressed in insect cells assessed as reduction in UDP hydrolysis up to 10 uM incubated for 1 hr in presence of UMP, GTP and ATP by Escherichia coli UMP kinase pyrH catalyzed UMP phosphorylation coupled luciferase assay

| Structure (SMILES) | inhibition [1] | inhibition [2] | inhibition [3] | inhibition [4] |
| --- | --- | --- | --- | --- |
| CCCCCCCCCCCCCCCC[N+](C)(C)CCN(Cc1ccc(OC)cc1)c1ncccn1 | Active | inactive | Active | Dose-dependent effect |
| O=C(O)c1ccc(-c2ccc(/C=C3\SC(=S)N(c4ccc([N+](=O)[O-])cc4)C3=O)o2)cc1 | Active | inactive | Active | Dose-dependent effect |
| COc1ccc([C@@H]2Nc3ccc(Br)cc3[C@@H]3C=CC[C@@H]32)cc1[N+](=O)[O-] | Active | inactive | Active | Dose-dependent effect |
| O=C(NCCNc1ccc([N+](=O)[O-])cc1)c1ccc(CSc2nnnn2-c2ccccc2)cc1 | Active | inactive | Active | Dose-dependent effect |
| O=c1cc(-c2ccco2)nc(-c2ccco2)o1 | Active | inactive | Active | Dose-dependent effect |
| O=C1NC(=O)N(c2ccc(Cl)cc2)C(=O)/C1=C/c1cccn1-c1ccccc1 | Active | inactive | Active | Dose-dependent effect |
| CCN(CC)c1ccc(C(Nc2ccccn2)c2ccc3cccnc3c2O)cc1 (configuration not stated) | Active | inactive | Active | Dose-dependent effect |
| O=C1NC(=S)N(c2ccccc2F)C(=O)/C1=C/c1cccn1-c1ccc(Cl)cc1 | Active | inactive | Active | Dose-dependent effect |
| COc1cc(/C=C2/SC(=S)N(C3CCCCC3)C2=O)cc(Cl)c1O | Active | inactive | Active | Dose-dependent effect |
| O=C(CCl)N(CC(=O)N1c2ccccc2-n2cccc2C1c1ccc(Cl)cc1)C1CC1 (configuration not stated) | Active | inactive | Active | Dose-dependent effect |
| O=C(c1ccc2c(c1)C1C=CCC1C(c1ccc(Br)cc1)N2)N1CCCCCC1 (configuration not stated) | Active | inactive | Active | Dose-dependent effect |
| N#CC(c1ccc(Cl)cc1)c1c(Cl)cc(-n2ncc(=O)[nH]c2=O)cc1Cl (configuration not stated) | Active | inactive | Active | Dose-dependent effect |
| O=C(Nc1ccc(Oc2ccc(NC(=O)c3cccs3)cc2)cc1)c1cccs1 | Active | inactive | Active | Dose-dependent effect |
| COc1ccc(OC)c(-c2cn3c(CCN(Cc4ccco4)S(=O)(=O)c4ccc5ccccc5c4)csc3n2)c1 | Active | inactive | Active | Dose-dependent effect |
| CN1C(=O)c2ccc(NC(=S)NC(=O)CC34CC5CC(CC(C5)C3)C4)cc2C1=O | Active | inactive | Active | Dose-dependent effect |
| Clc1ccc(C2N=c3c(-c4ccco4)nnc(-c4nc5ccccc5s4)c3=N2)cc1 (configuration not stated) | Active | inactive | Active | Dose-dependent effect |
| CCOc1cc(/C=C2\SC(=S)NC2=O)cc(Br)c1OCc1cccc2ccccc12 | Active | inactive | Active | Dose-dependent effect |
| Cc1ccc2ncc(C(CC(=O)N3CCN(C(c4ccccc4)c4ccccc4)CC3)c3ccc4c(c3)OCO4)n2c1 (configuration not stated) | Active | inactive | Active | Dose-dependent effect |
